Test results as given in patent publication US12551463B2, “Dosing of a Bruton's tyrosine kinase inhibitor” (Loxo Oncology, Inc., priority 2019, dated 2026).
“Also recorded” adds a separate entry of the source.

Legend:
[1] = test system: MZL; experiment: Phase 1/2 clinical study, MZL patients; assay type: in vivo, human
Source text: (§1) The study is an open-label, multi-center study of oral BTK-I to evaluate safety and efficacy as monotherapy and as part of combination therapy in patients with CLL/SLL and NHL who have failed or are intolerant to standard of care. This study includes monotherapy as well as combination treatment parts. The monotherapy part includes Phase 1 dose escalation and dose expansion as well as Phase 2. The combination therapy part is a Phase 1b (safety assessment and expansion) of BTK-I in combination with venetoclax, with or without anti-CD20 therapy. Phase 1 dose escalation will proceed prior to start of Phase 1b or Phase 2. Once a recommended Phase 2 dose (RP2D) is identified in Phase 1, enrollment can commence to the Phase 1b combination therapies and Phase 2 monotherapy cohorts. […]
(§2) The primary objective of the Phase 2 is to assess the primary anti-tumor activity of BTK-I based on overall response rate (ORR) and as assessed by the Independent Review Committee. […]
(§3) Dosing during Phase 2 will be at the RP2D of 200 mg QD. […] The dose (and schedule) chosen for Phase 2 may be changed by the SRC based on emerging data (e.g., PK, safety, and/or efficacy) as long as the new dose is not greater than the highest dose that has a DLT <33% and is determined to be safe by the SRC in Phase 1. […]

[2] = test system: DLBCL; experiment: Phase 1/2 clinical study, DLBCL patients; assay type: in vivo, human
Source text: as §1, §2, §3

[3] = Human clinical trials of BTK-I: adverse events in the overall safety population of 323 patients; assay type: in vivo
Description: (§4) (Mato A., et al., “Toxicities and Outcomes of 616 Ibrutinib-Treated Patients in the United States: A Real-World Analysis”, Haematologica, 2018, 103(5), 874-879.) Between Mar. 21, 2019 and Sep. 27, 2020, across 7 dose levels ranging from 25 mg once daily (QD) to 300 mg QD in 323 patients, the only treatment-emergent adverse events regardless of attribution or grade seen in ≥10% of patients (n=323) were fatigue (n=65, 20%), diarrhea (n=55, 17%), and contusion (n=42, 13%). In 121 efficacy-evaluable cBTKi-treated chronic lymphocytic leukemia (CLL) patients (median prior lines=4), overall response rate (ORR) was 62% (95% CI: 53-71), rising to 84% in patients followed for ≥10 months.
Atrial arrythmias and hemorrhage are two important AEs associated with covalent BTK inhibitor discontinuation. […] Only 1 patient experienced a grade 3 hemorrhage, a subarachnoid bleed sustained during a bicycle accident. In total, 18 patients had discontinued a prior BTK inhibitor for cardiovascular toxicity (in 15) or hemorrhage (3). None experienced recurrence of these events on BTK-I.

[4] = test system: CLL/SLL, MCL, Waldenstrom's macroglobulinemia and follicular lymphoma patients; experiment: Human clinical trials of BTK-I: overall response rate in efficacy-evaluable patients; assay type: in vivo
Description: as §4

[5] = test system: CLL/SLL and B-cell NHL; experiment: Phase 1/2 clinical study of oral BTK-I monotherapy, all patients; assay type: in vivo, human
Source text: The study is an open-label, multi-center study of oral BTK-I to evaluate safety and efficacy as monotherapy and as part of combination therapy in patients with CLL/SLL and NHL who have failed or are intolerant to standard of care. This study includes monotherapy as well as combination treatment parts. The monotherapy part includes Phase 1 dose escalation and dose expansion as well as Phase 2. The combination therapy part is a Phase 1b (safety assessment and expansion) of BTK-I in combination with venetoclax, with or without anti-CD20 therapy. Phase 1 dose escalation will proceed prior to start of Phase 1b or Phase 2. Once a recommended Phase 2 dose (RP2D) is identified in Phase 1, enrollment can commence to the Phase 1b combination therapies and Phase 2 monotherapy cohorts.
The primary objectives of the Phase 1 Dose Escalation and Expansion part of the study is to determine the maximum tolerated dose (MTD)/RP2D of oral BTK-I in patients with previously treated CLL/SLL and B-cell NHL.
Patients are enrolled with histologically confirmed CLL/SLL or B-cell NHL who have failed or are intolerant to at least two prior standard of care regimens given in combination or sequentially or have received at least one prior BTK inhibitor-containing regimen when BTK inhibitor is approved in first line.
BTK-I is administered in oral tablet form. Dose escalation will follow a 3+3 design starting with a 25 mg QD dose (followed by 50 mg QD (dose level cohort 2), 100 mg QD (dose level cohort 3), 150 mg QD (dose level cohort 4), 200 mg QD (dose level cohort 5), 250 mg QD (dose level cohort 6), and 300 mg QD (dose level cohort 7)). Cycle length will be 28 days. The drug limiting toxicity (DLT) period will be 28 days, commencing with the first dose of BTK-I.
as §2, §3

[6] = 25 mg QD to 300 mg QD, n=323, regardless of attribution or grade

With `COc1ccc(F)cc1C(=O)NCc1ccc(-c2nn([C@@H](C)C(F)(F)F)c(N)c2C(N)=O)cc1` [BTK-I, (S)-5-amino-3-(4-((5-fluoro-2-methoxybenzamido)methyl)phenyl)-1-(1,1,1-trifluoropropane-2-yl)-1H-pyrazole-4-carboxamide] the responses/patients [1] was 2/9, the responses/patients [2] was 6/25 and the “treatment-emergent adverse event contusion, patients” value [3, 6] was 13%. For the same compound, the “treatment-emergent adverse event diarrhea, patients” value [3, 6] was 17%, the “treatment-emergent adverse event fatigue, patients” value [3, 6] was 20% and the “recurrence of cardiovascular toxicity or hemorrhage on BTK-I” value ([3]; 18 patients who had discontinued a prior BTK inhibitor for cardiovascular toxicity (15) or hemorrhage (3)) was “None”. The “permanent discontinuations for drug-related adverse events, patients” value ([3]; n=323 (in 5)) was 1.5%, the “dose reductions for drug-related adverse events, patients” value ([3]; n=323 (in 7)) was 2.2% and the “dose interruptions for drug-related adverse events, patients” value ([3]; n=323 (in 26)) was 8.0%. The “atrial fibrillation/flutter, patients” value ([3]; overall safety population of 323 patients, 2 patients, both grade 2, considered unrelated) was 0.6%, the “grade 3 hemorrhage” value ([3]; overall safety population of 323 patients, subarachnoid bleed during a bicycle accident) was 1 patient and the ORR ([4]; 52 efficacy-evaluable cBTKi-treated MCL patients, 95% CI: 38-66) was 52%. The “overall response rate (ORR)” value ([4]; 121 efficacy-evaluable cBTKi-treated CLL patients, median prior lines=4, 95% CI: 53-71) was 62%, the ORR ([4]; CLL/SLL patients with BTK C481-mutant disease (17/24)) was 71% and the ORR ([4]; CLL/SLL patients with BTK-wildtype disease (43/65)) was 66%. For the same compound, the ORR ([4]; CLL/SLL patients with cBTKi intolerance (22/42)) was 52%, the ORR ([4]; CLL/SLL patients with prior cBTKi resistance (53/79)) was 67% and the ORR ([4]; Waldenstrom's macroglobulinemia (WM), n=19) was 68%. For the same compound, the “overall response rate (ORR)” value ([4]; cBTKi-treated CLL patients followed for ≥10 months) was 84%, the ORR ([4]; follicular lymphoma (FL), n=8) was 50% and the “responding patients who remain progression-free” value ([4]; of 117 responding CLL or MCL patients) was “all but 8”. For the same compound, the “responses at first dose level” value ([5]; 25 mg QD) was “Responses were observed”, the “clinical activity/efficacy across dose levels” value ([5]; 7 dose levels, 25 mg to 300 mg QD) was “demonstrated activity across all dose levels; also recorded: Efficacy was observed at all dose levels” and the “treated patients remaining on BTK-I” value ([5]; 237 of 323 at data cut) was 73%. For the same compound, the “responses in remaining efficacy-evaluable patients” value ([5]; remaining 39 patients (other B-cell malignancies)) was 8.
